Source: patent publication US20130029983A1, “AMINOTHIENOPYRIDAZINE INHIBITORS OF TAU ASSEMBLY” (priority 2009, published 2013)
Where two headings read alike, the source gives them in different places.

Key:
K18PL tau [1] = molecular target: T1, K18PL tau (Homo sapiens, UniProt P10636, P618L); experiment: Heparin-induced K18PL tau fibrillization assay monitored by ThT fluorescence; format: biochemical; conditions: for Emax: read-out: K18PL (ThT) maximal percent inhibition achieved in the assay; for inhibition at 80 µM: highest tested concentration (80 μM), read-out: Tau ThT Assay % Inhib.
T1 construct: (K18PL; amino acids 244-369); made in house
Description: Tau fibril formation reactions were performed essentially as described (Crowe, A., Ballatore, C., Hyde, E., Trojanowski, J. Q., and Lee, V. M. Y. (2007) Biochemical and Biophysical Research Communications 358, 1-6). K18PL (2 μl of a 30 μM stock that also contained 0.24 μM Alexa Red-labeled K18PL) was dispensed into black 1536-well plates (Grenier) using a solenoid-based dispenser. Following transfer of 23 nL of test compound or DMSO vehicle by a pin tool from compound library plates, 2 μl/well of 40 μM heparin in reagent buffer was dispensed and the plate was centrifuged for 15 s at 1000 rpm in a table-top centrifuge. The fibrillization reaction proceeded for 6 hours at 37° C. in a humidified incubator (Kalypsys).
K18PL fibril formation was quantified with a ThT assay as previously described (Crowe, A., Ballatore, C., Hyde, E., Trojanowski, J. Q., and Lee, V. M. Y. (2007) Biochemical and Biophysical Research Communications 358, 1-6). Briefly, 1 μl/well of 62.5 μM ThT (Sigma) in 100 mM glycine, pH 8.5 (12.5 μM final concentration) was dispensed into 1536-well plates after completion of the fibrillization reaction and incubated at room temperature for 1 hour. Plates were read on an Envision fluorescence plate reader with an excitation of 450 nm and an emission setting of 510 nm.
Compound effects on tau assembly were determined for the ThT and FP assays using the formula 1−(Fcompound− FDMSO)/( Fcontrol− FDMSO), where Fcontrol denotes the median plate fluorescence values (ThT assay) or mP values (FP assay) of the non-fibrillizing K18 KD control wells, FDMSO denotes the median value of the DMSO control wells, and Fcompound denotes the compound well values. The resulting values were multiplied by 100 to obtain the percent inhibition of tau fibril formation.
(§1) The solubility of test compounds in the sodium acetate buffer used for subsequent fibrillization reactions was determined by turbidimetric measurements. Compounds were then evaluated in a heparin-induced tau assembly assay, in which the fibrillization of the truncated K18 tau fragment (comprised of four MT-binding repeats) bearing the P301L mutation (K18PL) found in FTDP-17, was monitored by thioflavine-T (ThT) binding and fluorescence (FIG. 3A). (Crowe, A.; et al., Identification of aminothienopyridazine inhibitors of tau assembly by quantitative high-throughput screening. Biochemistry 2009, 48, 7732-45.) The inhibitory activity of test compounds was then confirmed with an orthogonal sedimentation assay in which compound-treated fibrillizing mixtures were centrifuged and quantitation of K18PL tau in the soluble and insoluble fraction was performed by densitometric analyses of SDS-PAGE (FIG. 3B). […] Thus, the tau fibrillization assay was repeated in which both DMSO- and compound-treated mixtures were initially centrifuged for 30 min. prior to incubation (i.e., at time zero of the fibrillization reaction) to remove any pelletable material.

K18PL tau [2] = molecular target: T1, K18PL tau; experiment: K18PL tau centrifugation (sedimentation) assay, SDS-PAGE densitometry; format: biochemical; conditions: for Emax: read-out: K18PL Sed. Assay, maximal percent inhibition of K18PL fibrillization; for Tau Cent. Assay % Soluble: Table 4, K18PL tau centrifugation assay
Description: (§2) The determination of compound-induced effects on the amount of tau that remains soluble upon centrifugation, and EM visualization of tau species following incubation with test compounds, were as previously described (Crowe, A., Ballatore, C., Hyde, E., Trojanowski, J. Q., and Lee, V. M. Y. (2007) Biochemical and Biophysical Research Communications 358, 1-6).
as §1

full-length tau (tau40) = molecular target: T2, full-length tau (tau40) (Homo sapiens, UniProt P10636); experiment: Tau40 fibrillization sedimentation assay; format: biochemical; conditions: SDS-PAGE of soluble and insoluble fractions after centrifugation; for Emax: read-out: Tau40 Sed. Assay, maximal percent inhibition of tau40 fibrillization
T2 construct: Full length tau (Tau40; amino acids 1-441); made in house
Description: as §2, with “1-6). […]” for “1-6).”

[3] = Brain and plasma drug levels 1 h after i.p. administration (LC-MS/MS); format: in vivo; conditions: mice; for B/P, ratio between brain/plasma drug level: 1 h after i.p. 5 mg/Kg
Description: Test compounds underwent preliminary evaluations of brain penetration, in which 5 mg/Kg of each compound was administered intraperitoneally (i.p.) to a group of three normal mice; drug levels in brain and plasma were determined at a single time-point (1 h) by LC-MS/MS using pre-validated calibration curves. […] However, both esters appeared to have relatively short half-lives in plasma, as indicated by the limited amount of parent drug detected after 1 h from administration of the compounds. […] CNDR-51362 was selected for full PK analysis in which brain and plasma drug levels were determined at six time points (i.e., 30 min, 1 h, 2 h, 4 h, 8 h, and 16 h). The results from this experiment, illustrated in FIG. 6A, confirmed that the total B/P exposure ratio over 16 h is 1.6. […] Finally, in order to investigate the potential for ATPZ congeners to be orally administered, we evaluated brain and plasma level of CNDR-51362 and CNDR-51349 after oral administration of 5 mg/Kg.
Brain tissue was homogenized in 10 mM ammonium acetate, pH 5.7 (1:2; w/v) using a handheld sonic homogenizer. Plasma was obtained from blood that was collected into a 1.5 mL tube containing 0.5M EDTA solution and subjected to centrifugation for 10 min. at 4500 g at 4° C. Aliquots (50 μL) of brain homogenate or plasma were mixed with 0.2 mL of acetonitrile, centrifuged at 15,000 g, and the resulting supernatants were used for subsequent LC-MS/MS analysis. The LC-MS/MS system was comprised of an Aquity HPLC and a TQ MS that was controlled using MassLynx software (Waters Corporation, Milford, Mass., USA). Compounds were detected using multiple reaction monitoring (MRM) of their specific collision-induced ion transitions. Samples (5 μL) were separated on an Aquity BEH C18 column (1.7 μm, 2.1×50 mm) at 35° C. Operation was in positive electrospray ionization mode, with mobile phase A of 0.1% (v/v) formic acid, and B of either acetonitrile or methanol with 0.1% (v/v) formic acid at a flow rate of 0.6 mL/min using a gradient from 5% to 95% B over two min., followed by wash and re-equilibration steps. The MS was operated with a desolvation temperature of 450° C. and a source temperature of 150° C. Desolvation and source nitrogen gas flows were 900 L/hr and 50 L/hr, respectively. Source and MS/MS voltages were optimized for each compound using the MassLynx auto tune utility. Standard curves were generated for each compound from brain homogenate and plasma samples that had compound added at 4, 40, 400 and 4000 ng/mL and extracted as above. Peak areas were plotted against concentration and a 1/x weighted linear regression curve was used to quantify the tissue-derived samples using the average peak area from triplicate injections.

[4] = Turbidimetric solubility in fibrillization buffer; format: physicochemical; conditions: 100 mM NaOAc pH 7.0 fibrillization buffer, 1% DMSO
Description: Compounds were serially diluted in DMSO to achieve a 2.5 fold dilution series from 20 mM down 8 points to […] on a 384-well master plate (Costar 3672). Aliquots (2 μL) were transferred to a clear 96-well assay plate (Fisher 12-565-501) containing 198 μL fibrillization buffer (100 mM NaOAc pH 7.0) for a 100-fold dilution (200 μM down to 0.3 μM). The plate was incubated with agitation for 2.5 h, and the absorbance at 550, 600, 650 and 700 nm was measured on a Spectramax M5 spectrophotometer. DMSO (1%) in fibrillization buffer served as a control that was subtracted from each data point. The absorbances were averaged and the concentration at which the average absorbance rose above 0.03 AU was an indication of insoluble compound, with solubility limits reported as the previous concentration in the dilution series.

[5] = Table 5, read-out: K18PL (ThT) IC50 value
[6] = SDS-PAGE of soluble and insoluble fractions after centrifugation
[7] = Table 4, logarithm of IC50, K18PL tau ThT fluorescence inhibition, read-out: Tau ThT Assay Log IC50 (converted)

T1 sequence (P10636 561-686 P618L): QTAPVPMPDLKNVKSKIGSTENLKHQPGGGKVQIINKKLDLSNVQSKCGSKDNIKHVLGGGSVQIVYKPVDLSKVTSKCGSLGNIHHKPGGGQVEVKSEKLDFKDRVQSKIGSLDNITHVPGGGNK
T2 sequence (P10636 1-441 isoform P10636-8): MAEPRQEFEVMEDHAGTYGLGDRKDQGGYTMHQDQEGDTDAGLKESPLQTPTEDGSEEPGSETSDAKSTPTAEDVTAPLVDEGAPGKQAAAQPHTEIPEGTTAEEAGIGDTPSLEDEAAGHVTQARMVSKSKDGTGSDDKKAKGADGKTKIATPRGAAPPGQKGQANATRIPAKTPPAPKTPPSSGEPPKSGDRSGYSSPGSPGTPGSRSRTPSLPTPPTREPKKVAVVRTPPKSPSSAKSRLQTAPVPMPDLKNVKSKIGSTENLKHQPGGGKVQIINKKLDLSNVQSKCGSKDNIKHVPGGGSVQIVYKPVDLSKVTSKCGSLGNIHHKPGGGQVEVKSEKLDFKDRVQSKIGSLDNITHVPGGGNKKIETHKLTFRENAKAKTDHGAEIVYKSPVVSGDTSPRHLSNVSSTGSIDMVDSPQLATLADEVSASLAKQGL

| IC50 (K18PL tau [1]; [5]) | Emax (K18PL tau [1]; Table 5) | Emax (K18PL tau [2]; [6]) | Tau40 Sed. Assay, maximal percent inhibition of tau40 fibrillization (full-length tau (tau40)) | Emax (full-length tau (tau40)) | Brain penetration ([3]; i.p. 5 mg/Kg, 1 h) | B/P, ratio between brain/plasma drug level [3] | melting point | K18PL Sed. Assay, maximal percent inhibition of K18PL fibrillization (K18PL tau [2]; [6]) | Water Solubility [4] | inhibition at 80 µM (K18PL tau [1]; Table 4) | IC50 (K18PL tau [1]; [7]) | Tau Cent. Assay % Soluble (K18PL tau [2]) | Structure (SMILES) |
| --- | --- | --- | --- | --- | --- | --- | --- | --- | --- | --- | --- | --- | --- |
| – | – | – | – | – | – | – | 159 to 160 °C | – | – | 74% | 2 µM | 83% | CCOC(=O)c1cccc(-n2nc(C(=O)OCC)c3csc(N)c3c2=O)c1 [CNDR-51420, Ethyl 5-amino-3-(3-(ethoxycarbonyl)phenyl)-4-oxo-3,4-dihydrothieno[3,4-d]pyridazine-1-carboxylate] |
| – | – | – | – | – | – | – | 203 to 205 °C | – | – | 100% | 6.31 µM | 66% | CCOC(=O)c1nn(-c2ccccc2Br)c(=O)c2c(N)scc12 [CNDR-51421, Ethyl 5-amino-3-(2-bromophenyl)-4-oxo-3,4-dihydrothieno[3,4-d]pyridazine-1-carboxylate] |
| – | – | – | – | – | – | – | 163 to 165 °C | – | – | 87% | 1 µM | 67% | CCOC(=O)c1nn(-c2cccc(Br)c2)c(=O)c2c(N)scc12 [CNDR-51422, Ethyl 5-amino-3-(3-bromophenyl)-4-oxo-3,4-dihydrothieno[3,4-d]pyridazine-1-carboxylate] |
| – | – | – | – | – | – | – | 190 to 191 °C | – | – | 80% | 1.26 µM | 29% | CCOC(=O)c1nn(-c2cccc(C)c2)c(=O)c2c(N)scc12 [CNDR-51423, Ethyl 5-amino-4-oxo-3-(m-tolyl)-3,4-dihydrothieno[3,4-d]pyridazine-1-carboxylate] |

The remaining lines, values behind:

| Structure (SMILES) | IC50 (K18PL tau [1]; [5]) | Emax (K18PL tau [1]; Table 5) | Emax (K18PL tau [2]; [6]) | Tau40 Sed. Assay, maximal percent inhibition of tau40 fibrillization (full-length tau (tau40)) | Emax (full-length tau (tau40)) | Brain penetration ([3]; i.p. 5 mg/Kg, 1 h) | B/P, ratio between brain/plasma drug level [3] | melting point | K18PL Sed. Assay, maximal percent inhibition of K18PL fibrillization (K18PL tau [2]; [6]) | Water Solubility [4] | inhibition at 80 µM (K18PL tau [1]; Table 4) | IC50 (K18PL tau [1]; [7]) | Tau Cent. Assay % Soluble (K18PL tau [2]) |
| --- | --- | --- | --- | --- | --- | --- | --- | --- | --- | --- | --- | --- | --- |
| Nc1scc2c(C(=O)O)nn(-c3ccc(Cl)cc3)c(=O)c12 [CNDR-51348, 5-Amino-3-(4-chlorophenyl)-4-oxo-3,4-dihydrothieno[3,4-d]pyridazine-1-carboxylic acid] | 1.6 µM | 87% | 79% | 62% | 50 to 60% | lack of brain penetration | 0.023 | > 300 °C | – | – | – | – | – |
| CN(C)C(=O)c1nn(-c2ccc(Cl)cc2)c(=O)c2c(N)scc12 [CNDR-51361, 5-Amino-3-(4-chlorophenyl)-N,N-dimethyl-4-oxo-3,4-dihydrothieno[3,4-d]pyridazine-1-carboxamide] | 5.3 µM | 88% | – | 69% | 50 to 60% | – | 0.44 | – | 69% | 32 µM | – | – | – |
| CCNC(=O)c1nn(-c2ccc(Cl)cc2)c(=O)c2c(N)scc12 [CNDR-51365, 5-Amino-3-(4-chlorophenyl)-N-ethyl-4-oxo-3,4-dihydrothieno[3,4-d]pyridazine-1-carboxamide] | 5.6 µM | 91% | 94% | 57% | 50 to 60% | – | 1.8 | – | – | 32 µM | – | – | – |
| CC(C)OC(=O)c1nn(-c2ccc(Cl)cc2)c(=O)c2c(N)scc12 [CNDR-51371, Isopropyl 5-amino-3-(4-chlorophenyl)-4-oxo-3,4-dihydrothieno[3,4-d]pyridazine-1-carboxylate] | 1.5 µM | 81% | 44% | 61% | 50 to 60% | – | – | 118 to 120 °C | – | 32 µM | – | – | – |
| CCOC(=O)c1nn(-c2ccc(N=[N+]=[N-])cc2)c(=O)c2c(N)scc12 [CNDR-51412, Ethyl 5-amino-3-(4-azidophenyl)-4-oxo-3,4-dihydrothieno[3,4-d]pyridazine-1-carboxylate] | – | – | – | – | – | – | – | 169 to 170 °C | – | – | 80% | 6.31 µM | 51% |
| CCOC(=O)c1ccccc1-n1nc(C(=O)OCC)c2csc(N)c2c1=O [CNDR-51419, Ethyl 5-amino-3-(2-(ethoxycarbonyl)phenyl)-4-oxo-3,4-dihydrothieno[3,4-d]pyridazine-1-carboxylate] | – | – | – | – | – | – | – | 176 to 178 °C | – | – | 65% | 1.26 µM | 40% |
